Measured values published in US10562897B2, “Substituted 3,4-dihydro-2H-pyrido[1,2-a]pyrazine-1,6-diones as gamma secretase modulators” (Janssen Pharmaceutica NV, priority 2014, dated 2020).
Where two headings read alike, the source gives them in different places. Blank lines part the entries; values can stand above or below the compound they belong to.

What was measured:
Aβ40 = test: In vivo efficacy: brain level of soluble Aβ40, non-transgenic rodents, single oral dose 30 mg/kg, 4 h, MSD electrochemiluminescence, untreated control = 100; parameters: species or system mouse; conditions: Mus musculus, read-out: Aβ40 (% vs Ctrl) _Mean; for response vs control in vivo at 10 mg/kg: 10 mpk po
Source text: (§1) To determine whether acute administration of an Aβ42 lowering agent would reduce Aβ42 levels in vivo, non-transgenic rodents, e.g. mice or rats were used. Animals treated with the Aβ42 lowering agent were examined and compared to those untreated or treated with vehicle and brain levels of soluble Aβ42, Aβ40, Aβ38, and Aβ37 were quantitated by Meso Scale Discovery's (MSD) electrochemiluminescence detection technology. Treatment periods varied from hours (h) to days and were adjusted based on the results of the Aβ42 lowering once a time course of onset of effect could be established.
(§2) A typical protocol for measuring Aβ42 lowering in vivo is shown but it is only one of many variations that could be used to optimize the levels of detectable Aβ. For example, Aβ42 lowering compounds were formulated in 20% of Captisol® (a sulfobutyl ether of β-cyclodextrin) in water or 20% hydroxypropyl β cyclodextrin. The Aβ42 lowering agents were administered as a single oral dose or by any acceptable route of administration to overnight fasted animals. After 4 h, the animals were sacrificed and Aβ42 levels were analysed.
(§3) Blood was collected by decapitation and exsanguinations in EDTA-treated collection tubes. Blood was centrifuged at 1900 g for 10 minutes (min) at 4° C. and the plasma recovered and flash frozen for later analysis. The brain was removed from the cranium and hindbrain. The cerebellum was removed and the left and right hemisphere were separated. The left hemisphere was stored at −18° C. for quantitative analysis of test compound levels. The right hemisphere was rinsed with phosphate-buffered saline (PBS) buffer and immediately frozen on dry ice and stored at −80° C. until homogenization for biochemical assays.
(§4) Mouse brains from non-transgenic animals were resuspended in 8 volumes of 0.4% DEA (diethylamine)/50 mM NaCl containing protease inhibitors (Roche-11873580001 or 04693159001) per gram of tissue, e.g. for 0.158 g brain, add 1.264 ml of 0.4% DEA. All samples were homogenized in the FastPrep-24 system (MP Biomedicals) using lysing matrix D (MPBio #6913-100) at 6 m/s for 20 seconds. Homogenates were centrifuged at 20800×g for 5 min and supernatants collected. Supernatants were centrifuged at 221.300×g for 50 min. The resulting high speed supernatants were then transferred to fresh eppendorf tubes. Nine parts of supernatant were neutralized with 1 part 0.5 M Tris-HCl pH 6.8 and used to quantify Aβ.
(§5) To quantify the amount of Aβ42, Aβ40, Aβ38, and Aβ37 in the soluble fraction of the brain homogenates, simultaneous specific detection of Aβ42, Aβ40, Aβ38, and Aβ37 was performed using MSD's electro-chemiluminescence multiplex detection technology. In this assay purified monoclonal antibodies specific for Abeta37 (JRD/Aβ37/3), Abeta38 (J&JPRD/Aβ38/5), Abeta40 (JRF/cAβ40/28), and Abeta42 (JRF/cAβ42/26) were coated on MSD 4-plex plates. Briefly, the standards (a dilution of synthetic Aβ42, Aβ40, Aβ38, and Aβ37) were prepared in 1.5 ml Eppendorf tube in Ultraculture, with final concentrations ranging from 10000 to 0.3 pg/m. The samples and standards were co-incubated with Sulfo-tag labelled JRF/rAß/2 antibody to the N-terminus of Aβ as detector antibody. 50 μl of conjugate/sample or conjugate/standards mixtures were then added to the antibody-coated plate. The plate was allowed to incubate overnight at 4° C. in order to allow formation of the antibody-amyloid complex. Following this incubation and subsequent wash steps the assay was finished by adding read buffer according to the manufacturer's instructions (Meso Scale Discovery, Gaitherburg, Md.).
The SULFO-TAG emits light upon electrochemical stimulation initiated at the electrode. MSD Sector instrument SI6000 was used for signal read-out. […]

Aβ42 = test: In vivo efficacy: brain level of soluble Aβ42, non-transgenic rodents, single oral dose 30 mg/kg, 4 h, MSD electrochemiluminescence, untreated control = 100; parameters: species or system mouse; conditions: for response vs control in vivo at 30 mg/kg / response vs control in vivo at 10 mg/kg: Mus musculus, read-out: Aβ42 (% vs Ctrl) _Mean; for response vs control in vivo at 10 mg/kg: 10 mpk po
Source text: as §1, §2, §3, §4, §5
(§6) The SULFO-TAG emits light upon electrochemical stimulation initiated at the electrode. MSD Sector instrument SI6000 was used for signal read-out.
In this model a Aß42 lowering compared to untreated animals would be advantageous, in particular a Aß42 lowering with at least 10%, more in particular a Aß42 lowering with at least 20%. […]

Aβ38 = test: In vivo efficacy: brain level of soluble Aβ38, non-transgenic rodents, single oral dose 30 mg/kg, 4 h, MSD electrochemiluminescence, untreated control = 100; parameters: species or system mouse; conditions: for response vs control in vivo at 30 mg/kg / response vs control in vivo at 10 mg/kg: Mus musculus, read-out: Aβ38 (% vs Ctrl) _Mean; for response vs control in vivo at 10 mg/kg: 10 mpk po
Source text: To determine whether acute administration of an Aβ38 increasing agents would increase Aβ38 levels in vivo, non-transgenic rodents, e.g. mice or rats were used. Animals treated with the Aβ38 increasing agents were examined and compared to those untreated or treated with vehicle and brain levels of soluble Aβ42, Aβ40, Aβ38, and Aβ37 were quantitated by MSD electrochemiluminescence detection technology.
Treatment periods varied from hours (h) to days and were adjusted based on the results of the Aβ38 increase once a time course of onset of effect could be established.
as §2, with “measuring Aβ38 increase” for “measuring Aβ42 lowering”, “example, Aβ38 increasing agents” for “example, Aβ42 lowering compounds”, “The Aβ38 increasing” for “The Aβ42 lowering”, “and Aβ38” for “and Aβ42”
as §3, §4
as §5, with “[…].” for “pg/m.”
as §6
In this model a Aß38 increase compared to untreated animals would be advantageous, in particular a Aß38 increase with at least 10%, more in particular a Aß38 increase with at least 20%. […]

[1] = dose 30 mg/kg oral dosing, 30 mg/kg

Compound: Cc1cn(-c2ccc3n(c2=O)C[C@@H](C)N(Cc2cc4cc(Br)ccc4o2)C3=O)cn1 [Compound 13]
response vs control in vivo at 30 mg/kg (Aβ40; po, dose 30 mg/kg oral dosing): 101%
response vs control in vivo at 30 mg/kg (Aβ42; po, dose 30 mg/kg oral dosing): 77%
melting point: 159 °C
response vs control in vivo at 30 mg/kg (Aβ38; po, dose 30 mg/kg oral dosing): 117%

Compound: Cc1cn(-c2ccc3n(c2=O)CCN(C(C)c2coc4cc(F)c(Cl)cc24)C3=O)cn1 (single isomer, unassigned) [Compound 61]
response vs control in vivo at 30 mg/kg (Aβ40; po, dose 30 mg/kg oral dosing): 90%
response vs control in vivo at 30 mg/kg (Aβ42; po, dose 30 mg/kg oral dosing): 86%
melting point: 231 °C
response vs control in vivo at 30 mg/kg (Aβ38; po, dose 30 mg/kg oral dosing): 192%

Compound: Cc1cn(-c2ccc3n(c2=O)CC(C)N(C(C)c2coc4ccc(Cl)cc24)C3=O)cn1 (single isomer, unassigned) [Compound 57]
response vs control in vivo at 30 mg/kg (Aβ40; sc, 30 mpk sc (footnote *)): 105%
response vs control in vivo at 30 mg/kg (Aβ42; sc, 30 mpk sc): 100%
response vs control in vivo at 30 mg/kg (Aβ38; sc, 30 mpk sc): 134%

Compound: Cc1cn(-c2ccc3n(c2=O)CC(C)N(Cc2cc4c(s2)CCC(C(F)(F)F)C4)C3=O)cn1 (stereo not drawn) [Compound 34]
response vs control in vivo at 30 mg/kg (Aβ40; po, dose 30 mg/kg oral dosing): 128%
response vs control in vivo at 30 mg/kg (Aβ42; po, dose 30 mg/kg oral dosing): 104%
response vs control in vivo at 30 mg/kg (Aβ38; po, dose 30 mg/kg oral dosing): 102%

Compound: Cc1cn(-c2ccc3n(c2=O)CC(C)N(Cc2csc4c2CC(C(F)(F)F)CC4)C3=O)cn1 (stereo not drawn) [Compound 35]
response vs control in vivo at 30 mg/kg (Aβ40; po, dose 30 mg/kg oral dosing): 108%
response vs control in vivo at 30 mg/kg (Aβ42; po, dose 30 mg/kg oral dosing): 112%
response vs control in vivo at 30 mg/kg (Aβ38; po, dose 30 mg/kg oral dosing): 116%

Compound: Cc1cn(-c2ccc3n(c2=O)C[C@@H](C)N(CC2(c4cc(OC5CC5)cc(C(F)(F)F)c4)CC2)C3=O)cn1 [Compound 53]
response vs control in vivo at 30 mg/kg (Aβ40; po, dose 30 mg/kg oral dosing): 121%
response vs control in vivo at 30 mg/kg (Aβ42; po, dose 30 mg/kg oral dosing): 120%
response vs control in vivo at 30 mg/kg (Aβ38; po, dose 30 mg/kg oral dosing): 124%

Compound: Cc1cn(-c2ccc3n(c2=O)CC(C)N(C(C)c2cc(OC4CC4)cc(C(F)(F)F)c2)C3=O)cn1 (stereo not drawn) [Compound 48]
response vs control in vivo at 30 mg/kg (Aβ40; po, dose 30 mg/kg oral dosing): 91%
Aβ42 (% vs Ctrl) _Mean (Aβ42; [1]): 60 % vs Ctrl
Aβ38 (% vs Ctrl) _Mean (Aβ38; [1]): 161 % vs Ctrl

Compound: Cc1cn(-c2ccc3n(c2=O)C[C@@H](C)N(Cc2cc(OC4CC4)cc(C(F)(F)F)c2)C3=O)cn1 [Compound 33]
response vs control in vivo at 30 mg/kg (Aβ40; po, dose 30 mg/kg oral dosing): 79%
response vs control in vivo at 30 mg/kg (Aβ42; po, dose 30 mg/kg oral dosing): 57%
response vs control in vivo at 30 mg/kg (Aβ38; po, dose 30 mg/kg oral dosing): 132%

Compound: Cc1cn(-c2ccc3n(c2=O)CCN(Cc2coc4ccc(C(F)(F)F)cc24)C3=O)cn1 [Compound 64]
response vs control in vivo at 30 mg/kg (Aβ40; sc, 30 mpk sc (footnote *)): 132%
response vs control in vivo at 30 mg/kg (Aβ42; sc, 30 mpk sc): 108%
melting point: 211 °C
response vs control in vivo at 30 mg/kg (Aβ38; sc, 30 mpk sc): 155%

Compound: Cc1cn(-c2ccc3n(c2=O)CC(C)N(C(C)c2coc4cc(F)c(Cl)cc24)C3=O)cn1 (single isomer, unassigned) [Compound 65]
response vs control in vivo at 30 mg/kg (Aβ40; po, dose 30 mg/kg oral dosing): 52%
response vs control in vivo at 30 mg/kg (Aβ42; po, dose 30 mg/kg oral dosing): 58%
response vs control in vivo at 30 mg/kg (Aβ38; po, dose 30 mg/kg oral dosing): 165%

Continued, in another order:

melting point: 226 °C
Compound: Cc1cn(-c2ccc3n(c2=O)C[C@@H](C)N(Cc2coc4cc(C(F)(F)F)c(F)cc24)C3=O)cn1 [Compound 85]
response vs control in vivo at 30 mg/kg (Aβ40; sc, 30 mpk sc (footnote *)): 69%
response vs control in vivo at 30 mg/kg (Aβ42; sc, 30 mpk sc): 51%
response vs control in vivo at 30 mg/kg (Aβ38; sc, 30 mpk sc): 194%

melting point: 187 °C
Compound: Cc1cn(-c2ccc3n(c2=O)C[C@@H](C)N(Cc2coc4ccc(C(F)(F)F)cc24)C3=O)cn1 [Compound 73]
response vs control in vivo at 30 mg/kg (Aβ40; sc, 30 mpk sc (footnote *)): 114%
response vs control in vivo at 30 mg/kg (Aβ42; sc, 30 mpk sc): 97%
response vs control in vivo at 30 mg/kg (Aβ38; sc, 30 mpk sc): 110%

melting point: 202 °C
Compound: Cc1cn(-c2ccc3n(c2=O)C[C@@H](C)N(Cc2coc4c(Cl)cc(Cl)cc24)C3=O)cn1 [Compound 74]
response vs control in vivo at 10 mg/kg (Aβ40; po): 100%
response vs control in vivo at 10 mg/kg (Aβ42; po): 83%
response vs control in vivo at 10 mg/kg (Aβ38; po): 144%

melting point: 230 °C
Compound: Cc1cn(-c2ccc3n(c2=O)CC(C)N(C(C)c2coc4cc(F)c(C(F)(F)F)cc24)C3=O)cn1 (single isomer, unassigned) [Compound 89]
response vs control in vivo at 10 mg/kg (Aβ40; po): 67%
response vs control in vivo at 10 mg/kg (Aβ42; po): 58%
response vs control in vivo at 10 mg/kg (Aβ38; po): 132%

melting point: 215 °C
Compound: Cc1cn(-c2ccc3n(c2=O)C[C@@H](C)N(Cc2coc4cc(C(F)(F)F)ccc24)C3=O)cn1 [Compound 72]
response vs control in vivo at 30 mg/kg (Aβ40; po, dose 30 mg/kg oral dosing): 88%
response vs control in vivo at 30 mg/kg (Aβ42; po, dose 30 mg/kg oral dosing): 64%
response vs control in vivo at 30 mg/kg (Aβ38; po, dose 30 mg/kg oral dosing): 130%

melting point: 222 °C
Compound: Cc1cn(-c2ccc3n(c2=O)C[C@@H](C)N(Cc2coc4cc(F)c(C(F)(F)F)cc24)C3=O)cn1 [Compound 84]
response vs control in vivo at 30 mg/kg (Aβ40; sc, 30 mpk sc (footnote *)): 21%
response vs control in vivo at 30 mg/kg (Aβ42; sc, 30 mpk sc): 25%
response vs control in vivo at 30 mg/kg (Aβ38; sc, 30 mpk sc): 237%
